According to the supplement of paper PMC4862054:
Values joined by “and” are separate entries in the source; they are usually repeats but may differ in a detail not shown here. Equal values may be shown once.

Tests used:
Assay in all cases: normalised viability (% of control), CellTiter-Blue; higher = more viable cells (about 100 = DMSO control)
Conditions in all cases: incubation time: 72 h
CAL-51 [1] = tested on: CAL-51
Procedure: (§1)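 DSRT, CellTiter-Blue viability, 72 h incubation. Signal is normalised to DMSO and benzethonium chloride controls. Value is the normalised response at dose 8.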

CAL-85-1 [2] = tested on: CAL-85-1
Procedure: as §1

MDA-MB-453 [3] = tested on: MDA-MB-453
Procedure: as §1

HDQ-P1 [4] = tested on: HDQ-P1
Procedure: as §1

CAL-148 [5] = tested on: CAL-148
Procedure: as §1

DU-4475 [6] = tested on: DU-4475
Procedure: as §1

CAL-51 [7] = tested on: CAL-51; remark: listed apart in the source
Procedure: (§2)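 DSRT, CellTiter-Blue viability, 72 h incubation. Signal is normalised to DMSO and benzethonium chloride controls. Value is the normalised response at dose 6.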

CAL-85-1 [8] = tested on: CAL-85-1; remark: listed apart in the source
Procedure: as §2

MDA-MB-453 [9] = tested on: MDA-MB-453; remark: listed apart in the source
Procedure: as §2

HDQ-P1 [10] = tested on: HDQ-P1; remark: listed apart in the source
Procedure: as §2

CAL-148 [11] = tested on: CAL-148; remark: listed apart in the source
Procedure: as §2

DU-4475 [12] = tested on: DU-4475; remark: listed apart in the source
Procedure: as §2

CAL-51 [13] = tested on: CAL-51; remark: listed apart in the source
Procedure: (§3)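 DSRT, CellTiter-Blue viability, 72 h incubation. Signal is normalised to DMSO and benzethonium chloride controls. Value is the normalised response at dose 7.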

CAL-85-1 [14] = tested on: CAL-85-1; remark: listed apart in the source
Procedure: as §3

MDA-MB-453 [15] = tested on: MDA-MB-453; remark: listed apart in the source
Procedure: as §3

HDQ-P1 [16] = tested on: HDQ-P1; remark: listed apart in the source
Procedure: as §3

CAL-148 [17] = tested on: CAL-148; remark: listed apart in the source
Procedure: as §3

DU-4475 [18] = tested on: DU-4475; remark: listed apart in the source
Procedure: as §3

| Compound | normalised viability (CAL-51 [1]) | normalised viability (CAL-85-1 [2]) | normalised viability (MDA-MB-453 [3]) | normalised viability (HDQ-P1 [4]) | normalised viability (CAL-148 [5]) | normalised viability (DU-4475 [6]) | normalised viability (CAL-51 [7]) [%] | normalised viability (CAL-85-1 [8]) [%] | normalised viability (MDA-MB-453 [9]) [%] | normalised viability (HDQ-P1 [10]) [%] | normalised viability (CAL-148 [11]) [%] | normalised viability (DU-4475 [12]) [%] | other results |
| --- | --- | --- | --- | --- | --- | --- | --- | --- | --- | --- | --- | --- | --- |
| CNC(=O)c1cc(Oc2ccc(NC(=O)Nc3ccc(Cl)c(C(F)(F)F)c3)c(F)c2)ccn1 [Regorafenib] (3000 nM) | 69.5% | 86.6% | 53.1% | 88.4% | 95.8% | 67.6% |  |  |  |  |  |  |  |
| C=C1C[C@@H]2[C@H](CC[C@]3(C)C(=O)CC[C@@H]23)[C@@]2(C)C=CC(=O)C=C12 [Exemestane] (300 nM) |  |  |  |  |  |  | 97.1 | 88.5 | 90.8 | 78 | 87 | 81.7 |  |
| COCC[n+]1c2c(n(Cc3cnccn3)c1C)C(=O)c1ccccc1C2=O [YM155] (3000 nM) | 1.46% | 2.51% | 2.38% | 0.93% | 2.73% | 0.2% |  |  |  |  |  |  |  |
| CN(C)c1nc(N(C)C)nc(N(C)C)n1 [Altretamine] (3000 nM) | 114% | 97.8% | 108% | 99.9% | 97% | 115% |  |  |  |  |  |  |  |
| Oc1ccc2c(c1)CC[C@H](c1ccccc1)[C@@H]2c1ccc(OCCN2CCCC2)cc1 [Lasofoxifene] (30 nM) |  |  |  |  |  |  | 106 | 100 | 116 | 60.8 | 116 | 93 |  |
| c1ccc2c(CCNc3ccc(Nc4ccncc4)cc3)c[nH]c2c1 [Serdemetan] (300 nM) |  |  |  |  |  |  | 108 | 87.7 | 109 | 57.9 | 87.6 | 87.6 |  |
| NC(=O)c1ccc(I)c([N+](=O)[O-])c1 [Iniparib] (300 nM) |  |  |  |  |  |  | 98.7 | 88.8 | 95.2 | 87.2 | 89.2 | 84 |  |
| S=P(N1CC1)(N1CC1)N1CC1 [Thio-TEPA] (30000 nM) | 102% | 97.8% | 97% | 108% | 127% | 103% |  |  |  |  |  |  |  |
| CCc1c2c(nc3ccc(OC(=O)N4CCC(N5CCCCC5)CC4)cc13)-c1cc3c(c(=O)n1C2)COC(=O)[C@]3(O)CC [Irinotecan] (3000 nM) | 49.9% and 64.2% | 63.7% and 73.4% | 73.3% and 90.7% |  | 28% and 42% | 44.3% and 57.5% |  |  |  |  |  |  |  |
| Cc1ccc(NC(=O)c2ccc(CN3CCN(C)CC3)cc2)cc1Nc1nc(-c2cccnc2)cs1 [Masitinib] (3000 nM) | 115% | 94% | 65.5% | 103% | 74.8% | 125% |  |  |  |  |  |  |  |
| COc1cc2ncnc(Nc3ccc(F)c(Cl)c3)c2cc1OCCCN1CCOCC1 [Gefitinib] (3000 nM) | 96.4% and 96.1% | 55.9% and 54% | 79.3% and 69.5% | 77% and 86.2% | 76% and 67.1% | 101% |  |  |  |  |  |  |  |
| COCC1(CO)C(=O)C2CCN1CC2 (centres undefined) [Prima-1 Met] (3000 nM) | 97.2% | 91.4% | 100% | 77.5% | 89.1% | 101% |  |  |  |  |  |  |  |
| CN(C)CCOc1ccc(/C(=C(/CCCl)c2ccccc2)c2ccccc2)cc1 [Toremifene] (3000 nM) | 95.8% | 109% | 99.7% | 113% | 104% | 101% |  |  |  |  |  |  |  |
| CNC(=O)c1cc(Oc2ccc(NC(=O)Nc3ccc(Cl)c(C(F)(F)F)c3)c(F)c2)ccn1 [Regorafenib] (300 nM) |  |  |  |  |  |  | 100 | 85.3 | 95.6 | 89.8 | 93.6 | 103 |  |
| CO[C@H]1C[C@@H]2CC[C@@H](C)[C@@](O)(O2)C(=O)C(=O)N2CCCC[C@H]2C(=O)O[C@H]([C@H](C)C[C@@H]2CC[C@@H](OP(C)(C)=O)[C@H](OC)C2)CC(=O)[C@H](C)/C=C(\C)[C@@H](O)[C@@H](OC)C(=O)[C@H](C)C[C@H](C)/C=C/C=C/C=C/1C [Ridaforolimus] (300 nM) | 35.5% | 55.4% | 28.5% | 65.8% | 34.2% | 51.7% |  |  |  |  |  |  |  |
| Cc1cc(Nc2cc(CN3CCOCC3)c3nc(C)c(Cc4ccc(Cl)cc4F)n3n2)n[nH]1 (1000 nM) |  |  |  |  |  |  |  |  |  |  |  |  | normalised viability (CAL-51 [13]): 85.8%; normalised viability (CAL-85-1 [14]): 86.5%; normalised viability (MDA-MB-453 [15]): 53.3%; normalised viability (HDQ-P1 [16]): 72.5%; normalised viability (CAL-148 [17]): 94.6%; normalised viability (DU-4475 [18]): 94% |
| COC(=O)c1ccc2c(c1)NC(=O)/C2=C(\Nc1ccc(N(C)C(=O)CN2CCN(C)CC2)cc1)c1ccccc1 [BIBF 1120] (1000 nM) |  |  |  |  |  |  |  |  |  |  |  |  | normalised viability (CAL-51 [13]): 68.2%; normalised viability (CAL-85-1 [14]): 111%; normalised viability (MDA-MB-453 [15]): 78.2%; normalised viability (HDQ-P1 [16]): 119%; normalised viability (CAL-148 [17]): 99%; normalised viability (DU-4475 [18]): 96.8% |
| COc1cc2/c(=N/c3ccc(Br)cc3F)nc[nH]c2cc1OCC1CCN(C)CC1 [Vandetanib] (300 nM) |  |  |  |  |  |  | 89.6 | 83.7 | 97.5 | 31.4 | 90.7 | 101 |  |
| COCC[n+]1c2c(n(Cc3cnccn3)c1C)C(=O)c1ccccc1C2=O [YM155] (300 nM) |  |  |  |  |  |  | 2.3 | 1.89 | 10.9 | -0.08 | 1.6 | 10.8 |  |
| COCC1(CO)C(=O)C2CCN1CC2 (centres undefined) [Prima-1 Met] (300 nM) |  |  |  |  |  |  | 91.2 | 83.3 | 87.1 | 53.8 | 94.5 | 116 |  |
